Results taken from US20170066759A1, “AROMATIC 5-MEMBERED HETEROCYCLIC DERIVATIVE HAVING TRPV4-INHIBITING ACTIVITY” (Shionogi & Co., Ltd., priority 2012, published 2017).

Columns and labels:
CYP2D6 = target: T1, CYP2D6 (Homo sapiens, UniProt P10635); experiment: Test Example 6: CYP inhibition test, dextromethorphan O-demethylation (CYP2D6); format: in vitro ADME; conditions: pooled human hepatic microsome, 5 μmol/L dextromethorphan
T1 construct: enzyme, pooled human hepatic microsome 0.2 mg protein/mL; from tissue; host or cells: pooled human liver microsomes
T1 sequence (P10635 whole entry): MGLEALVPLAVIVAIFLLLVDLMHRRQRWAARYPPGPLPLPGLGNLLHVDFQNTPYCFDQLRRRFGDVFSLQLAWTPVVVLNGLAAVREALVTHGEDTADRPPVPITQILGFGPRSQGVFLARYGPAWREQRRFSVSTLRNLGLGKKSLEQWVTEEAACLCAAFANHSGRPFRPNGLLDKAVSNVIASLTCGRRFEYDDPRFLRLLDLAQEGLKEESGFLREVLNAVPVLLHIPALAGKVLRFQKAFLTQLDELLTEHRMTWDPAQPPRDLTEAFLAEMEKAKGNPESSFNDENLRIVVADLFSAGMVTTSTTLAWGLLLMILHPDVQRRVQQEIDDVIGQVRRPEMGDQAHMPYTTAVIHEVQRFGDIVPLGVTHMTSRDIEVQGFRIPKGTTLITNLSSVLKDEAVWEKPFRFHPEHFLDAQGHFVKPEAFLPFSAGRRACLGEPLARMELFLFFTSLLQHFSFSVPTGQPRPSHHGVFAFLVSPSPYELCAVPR
Experimental: (§1) Test Example 6 CYP Inhibition Test […] The reaction conditions were as follows: substrate, 0.5 μmol/L ethoxyresorufin (CYP1A2), 100 μmol/L tolbutamide (CYP2C9), 50 μmol/L S-mephenytoin (CYP2C19), 5 μmol/L dextromethorphan (CYP2D6), 1 μmol/L terfenedine (CYP3A4); reaction time, 15 minutes; reaction temperature, 37° C.; enzyme, pooled human hepatic microsome 0.2 mg protein/mL; concentration of the compound of the present invention, 1, 5, 10, 20 μmol/L (four points). Each five kinds of substrates, human hepatic microsome, and the compound of the present invention in 50 mmol/L Hepes buffer as a reaction solution were added to a 96-well plate at the composition as described above. NADPH, as a cofactor was added to initiate metabolism reactions as markers and, after the incubation at 37° C. for 15 minutes, a methanol/acetonitrile=1/1 (v/v) solution was added to stop the reaction. After the centrifugation at 3000 rpm for 15 minutes, resorufin (CYP1A2 metabolite) in the supernatant was quantified by a fluorescent multilabel counter and toltributamide hydroxide (CYP2[…] metabolite), mephenytoin 4' hydroxide (CYP2C19 metabolite), […], and terfenadine alcohol (CYP3A4 metabolite) were quantified by LC/MS/MS. Addition of only DMSO being a solvent dissolving the compound of the present invention to a reaction system was adopted as a control (100%). Remaining activity (%) was calculated at each concentration of the compound of the present invention added as the solution and IC50 was calculated by reverse presumption by a logistic model using a concentration and an inhibition rate.

CYP3A4 = target: T2, CYP3A4 (Homo sapiens, UniProt P08684); experiment: Test Example 6: CYP inhibition test, terfenedine hydroxylation (CYP3A4); format: in vitro ADME; conditions: pooled human hepatic microsome, 1 μmol/L terfenedine
T2 construct: enzyme, pooled human hepatic microsome 0.2 mg protein/mL; from tissue; host or cells: pooled human liver microsomes
T2 sequence (P08684 whole entry): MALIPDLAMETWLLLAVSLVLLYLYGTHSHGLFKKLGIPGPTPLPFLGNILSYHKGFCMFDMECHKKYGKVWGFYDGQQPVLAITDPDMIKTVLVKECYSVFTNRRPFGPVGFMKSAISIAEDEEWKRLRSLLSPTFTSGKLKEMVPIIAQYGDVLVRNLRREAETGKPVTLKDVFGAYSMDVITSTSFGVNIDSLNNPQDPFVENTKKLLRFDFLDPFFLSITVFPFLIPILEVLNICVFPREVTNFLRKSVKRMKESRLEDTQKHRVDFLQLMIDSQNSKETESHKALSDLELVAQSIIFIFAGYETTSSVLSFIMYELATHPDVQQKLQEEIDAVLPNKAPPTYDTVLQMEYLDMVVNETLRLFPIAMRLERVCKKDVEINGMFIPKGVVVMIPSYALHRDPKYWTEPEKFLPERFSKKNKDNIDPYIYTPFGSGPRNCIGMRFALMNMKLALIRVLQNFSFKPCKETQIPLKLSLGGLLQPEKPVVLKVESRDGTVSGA
Experimental: as §1

[1] = test system: Salmonella typhimurium TA98 strain, TA100 strain; experiment: Test Example 7: FAT test (mutagenicity); design: key: (−) means that mutagenicity is negative; (+) is positive; conditions: TA98 and TA100 strains, non-metabolism activating and metabolism activating conditions
Experimental: Mutagenicity of a compound of the present invention was evaluated.
[…] of freezing-stored rat typhoid bacillus (Salmonella typhimurium TA98 strain, TA100 strain) was inoculated on 10 mL of a liquid nutrient medium (2.5% Oxoid nutrient broth No. 2), and this was cultured before shaking at 37° C. for 10 hours. 9 mL of a bacterial solution of the TA98 strain was centrifuged (2000×g, 10 minutes) to remove a culturing solution. The bacteria was suspended in 9 mL of a Micro F buffer (K2HPO4: 3.5 g/L, KH2PO4: 1 g/L, (NH4)2SO4: 1 g/L, trisodium citrate dehydrate: 0.25 g/L, MgSO4*7H2O: 0.1 g/L), the suspension was added to 110 mL of an Exposure medium (Micro F buffer containing Biotin: 8 μg/mL, histidine: 0.2 μg/mL, glucose: 8 mg/mL). The TA100 strain was added to 120 mL of the Exposure medium relative to 3.16 mL of the bacterial solution to prepare a test bacterial solution. […] Since a well containing a bacterium which has obtained the proliferation ability by mutation of an amino acid (histidine) synthesizing enzyme gene turns from purple to yellow due to a pH change, the bacterium proliferation well which has turned to yellow in 48 wells per dose was counted, and was assessed by comparing with a negative control group. […]

hERG (IKr) = target: T3, hERG (IKr) (Homo sapiens, UniProt Q12809); experiment: Test Example 10: hERG test (IKr, whole cell patch clamp); format: cell-based; conditions: HEK293 cells expressing hERG channel, pH 7.4, 1 μmol/L of the compound, read-out: hERG % inhibition of tail peak current (IKr)
T3 construct: expressed in transfected cells; host or cells: HEK293
T3 sequence (Q12809 whole entry): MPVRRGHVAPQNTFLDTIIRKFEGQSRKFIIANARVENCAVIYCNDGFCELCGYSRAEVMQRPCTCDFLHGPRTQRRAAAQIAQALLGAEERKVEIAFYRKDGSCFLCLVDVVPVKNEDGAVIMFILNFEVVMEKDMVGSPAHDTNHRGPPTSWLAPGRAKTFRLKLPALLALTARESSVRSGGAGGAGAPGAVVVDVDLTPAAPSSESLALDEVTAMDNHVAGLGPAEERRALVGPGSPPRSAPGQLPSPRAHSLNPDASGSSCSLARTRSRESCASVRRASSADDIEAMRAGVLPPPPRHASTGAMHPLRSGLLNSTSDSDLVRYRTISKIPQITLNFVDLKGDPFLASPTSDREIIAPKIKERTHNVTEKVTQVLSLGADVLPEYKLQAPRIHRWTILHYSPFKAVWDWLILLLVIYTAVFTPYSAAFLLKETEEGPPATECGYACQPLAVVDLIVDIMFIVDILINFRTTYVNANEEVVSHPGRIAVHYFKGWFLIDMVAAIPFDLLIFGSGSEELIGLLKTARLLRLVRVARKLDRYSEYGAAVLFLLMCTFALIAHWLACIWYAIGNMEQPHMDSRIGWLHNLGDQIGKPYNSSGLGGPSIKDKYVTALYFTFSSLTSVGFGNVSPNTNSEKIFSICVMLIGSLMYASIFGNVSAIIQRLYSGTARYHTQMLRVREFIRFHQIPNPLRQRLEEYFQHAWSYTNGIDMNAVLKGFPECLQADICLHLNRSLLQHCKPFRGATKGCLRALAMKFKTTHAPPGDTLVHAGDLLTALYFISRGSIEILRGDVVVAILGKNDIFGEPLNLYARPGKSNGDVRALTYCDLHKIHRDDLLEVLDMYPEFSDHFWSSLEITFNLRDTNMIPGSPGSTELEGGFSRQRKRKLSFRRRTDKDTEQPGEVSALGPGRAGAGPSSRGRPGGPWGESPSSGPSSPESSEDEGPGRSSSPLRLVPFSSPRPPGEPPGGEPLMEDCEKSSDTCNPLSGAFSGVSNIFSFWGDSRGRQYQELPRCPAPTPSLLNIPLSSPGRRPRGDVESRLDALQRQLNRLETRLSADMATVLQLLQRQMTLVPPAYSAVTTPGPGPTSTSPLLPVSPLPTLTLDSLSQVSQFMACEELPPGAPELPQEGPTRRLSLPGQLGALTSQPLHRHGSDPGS
From the text: For the purpose of assessing risk of an electrocardiogram QT interval prolongation of a compound of the present invention, effects of the compound of the present invention on delayed rectifier K^+ current (IKr), which plays an important role in the ventricular repolarization process, was studied using HEK293 cells expressing human ether-a-go-go related gene (hERG) channel.
After a cell was retained at a membrane potential of −80 mV by whole cell patch clamp method using an automated patch clamp system (PatchXpress 7000A, Axon Instruments Inc.), IKr induced by depolarization pulse stimulation at +40 mV for 2 seconds and, further, repolarization pulse stimulation at −50 mV for 2 seconds was recorded. […] From the recording IKr, an absolute value of the tail peak current was measured based on the current value at the resting membrane potential using an analysis software (DataXpress ver. 1, Molecular Devices Corporation). Further, the % inhibition relative to the tail peak current before application of the compound of the present invention was calculated, and compared with the vehicle-applied group (0.1% dimethyl sulfoxide solution) to assess influence of the compound of the present invention on IKr. […]

[2] = target: T4, human TRPV4 (hTRPV4/CHO cells) (Homo sapiens, UniProt Q9HBA0); experiment: Test Example 1: TRPV4 inhibitory activity (IC50 value), 4α-PDD stimulation, Fluo4 calcium fluorescence (FLIPR TETRA); format: cell-based; conditions: Test Example 1, 4α-PDD stimulation, read-out: Test 1 IC50
T4 construct: expressed in transfected cells; host or cells: CHO-K1
T4 sequence (Q9HBA0 whole entry): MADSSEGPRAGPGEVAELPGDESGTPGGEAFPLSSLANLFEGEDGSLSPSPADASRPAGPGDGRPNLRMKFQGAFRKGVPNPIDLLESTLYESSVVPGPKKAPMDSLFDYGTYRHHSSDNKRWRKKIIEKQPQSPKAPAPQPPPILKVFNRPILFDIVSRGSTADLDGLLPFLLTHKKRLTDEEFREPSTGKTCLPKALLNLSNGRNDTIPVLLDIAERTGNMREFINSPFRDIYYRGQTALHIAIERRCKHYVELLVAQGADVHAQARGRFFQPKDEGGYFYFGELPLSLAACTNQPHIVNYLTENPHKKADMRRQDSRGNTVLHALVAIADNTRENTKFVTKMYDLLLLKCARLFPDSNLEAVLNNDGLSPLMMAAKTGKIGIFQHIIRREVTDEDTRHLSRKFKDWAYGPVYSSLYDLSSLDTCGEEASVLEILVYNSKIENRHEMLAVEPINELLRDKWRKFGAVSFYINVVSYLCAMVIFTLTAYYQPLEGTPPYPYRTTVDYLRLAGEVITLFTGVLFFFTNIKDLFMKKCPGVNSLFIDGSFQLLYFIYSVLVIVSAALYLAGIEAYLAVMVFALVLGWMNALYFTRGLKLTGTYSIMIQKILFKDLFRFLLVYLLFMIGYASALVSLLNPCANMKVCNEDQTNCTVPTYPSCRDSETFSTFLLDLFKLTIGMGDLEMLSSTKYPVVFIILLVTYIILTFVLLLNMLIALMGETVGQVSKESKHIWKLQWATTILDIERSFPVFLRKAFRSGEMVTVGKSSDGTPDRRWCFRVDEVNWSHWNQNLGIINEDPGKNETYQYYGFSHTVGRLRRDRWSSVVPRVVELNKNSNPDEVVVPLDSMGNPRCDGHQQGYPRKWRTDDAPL

| IC50 (CYP2D6) [µM] | IC50 (CYP3A4) [µM] | SMILES | Mutagenicity (FAT test) [1] | inhibition at 10 min, 1 μmol/L (hERG (IKr)) [%] | IC50 [2] [µM] |
| --- | --- | --- | --- | --- | --- |
| > 20 | > 20 | Cc1nc(C)c(-c2csc(NC(=O)Cc3ccc(S(C)(=O)=O)cc3)n2)s1 [Compound I-17] | – | – | – |
| – | – | Cc1nc(C)c(-c2csc(NC(=O)C3CCC(F)(F)C3)n2)s1 (centres unmarked) [Compound I-18] | (−) | 6.1 | 0.1 to 1 |
